Data: patent US20260265246A1 (ICAHN SCHOOL OF MEDICINE AT MOUNT SINAI, priority 2021, published 2026)
Read-outs that look alike come from different tables or passages of the source.

Experiments:
[1] = target: T1, 5HT2A receptor (Homo sapiens, UniProt P28223); experiment: biochemical; type: binding; parameters: expressed in transfected cells; crude membranes; conditions: secondary binding assay, Cheng-Prusoff
[2] = target: T1, 5HT2A receptor; experiment: cell-based; parameters: expressed in transfected cells; host or cells: HEK293T cells, transient co-transfection; conditions: for Emax: HEK-293T
[3] = target: T1, 5HT2A receptor; experiment: cell-based; parameters: expressed in transfected cells; host or cells: HEK293T cells, transient co-transfection; conditions: for Emax: HEK-293T; remark: listed apart in the source
[4] = BRET2 Gαq dissociation, HEK293T, read-out: 5HTA Gq EC50
[5] = BRET2 Gαq dissociation, HEK293T, normalized to 5-HT, read-out: 5HTA Gq Emax (%)
[6] = BRET1 beta-arrestin2 recruitment, HEK293T, normalized to 5-HT, read-out: 5HT2A β-Arr Emax (%)
[7] = 5HT2A β-Arr EC50 (nM), BRET1 beta-arrestin2 recruitment, HEK293T
[8] = 5HTA Gq EC50 (nM), BRET2 Gαq dissociation, HEK293T
[9] = read-out: 5HTA Gq Emax (%), BRET2 Gαq dissociation, HEK293T, normalized to 5-HT
[10] = read-out: 5HT2A β-Arr Emax (%), BRET1 beta-arrestin2 recruitment, HEK293T, normalized to 5-HT

T1 sequence (P28223 whole entry): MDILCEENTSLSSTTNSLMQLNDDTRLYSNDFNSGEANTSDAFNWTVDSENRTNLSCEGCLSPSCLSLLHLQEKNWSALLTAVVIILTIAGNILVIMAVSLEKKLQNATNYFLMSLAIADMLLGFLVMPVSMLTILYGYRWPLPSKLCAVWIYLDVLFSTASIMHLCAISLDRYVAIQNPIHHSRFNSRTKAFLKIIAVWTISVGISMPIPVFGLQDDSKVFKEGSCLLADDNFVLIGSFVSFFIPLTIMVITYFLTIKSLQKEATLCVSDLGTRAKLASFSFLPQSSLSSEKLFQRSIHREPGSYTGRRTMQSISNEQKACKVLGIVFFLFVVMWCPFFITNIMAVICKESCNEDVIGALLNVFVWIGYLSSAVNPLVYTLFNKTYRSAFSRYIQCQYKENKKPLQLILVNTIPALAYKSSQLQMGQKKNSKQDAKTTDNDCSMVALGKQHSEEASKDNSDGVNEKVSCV

SMILES | Ki ([1]; 5HT2A Ki (nM)) [nM] | EC50 [2, 4] [nM] | Emax [2, 5] [%] | EC50 ([3]; BRET1 beta-arrestin2 recruitment, HEK293T, read-out: 5HT2A β-Arr EC50) [nM] | Emax [3, 6] [%] | Ki ([1]; read-out: 5HT2A Ki) [nM] | EC50 [3, 7] [nM] | EC50 [2, 8] [nM] | Emax [2, 9] [%] | Emax [3, 10] [%]
Clc1cccc2c(C3=CCNC3)c[nH]c12 [Example 209, 7-chloro-3-(2,5-dihydro-1H-pyrrol-3-yl)-1H-indole] | 160 | 8.1 | 100 | 60.7 | 88.1 |  |  |  |  | 
CN1CC=C(c2c[nH]c3c(Cl)cccc23)C1 [Example 210, 7-chloro-3-(1-methyl-2,5-dihydro-1H-pyrrol-3-yl)-1H-indole] |  | 33.1 | 74.9 |  | 33.6 | 86.1 | 119 |  |  | 
CCCN1CC=C(c2n[nH]c3c(Cl)cccc23)C1 [Example 213, 7-chloro-3-(1-propyl-2,5-dihydro-1H-pyrrol-3-yl)-1H-indazole] | 1770 | 72.7 | 61.3 |  | 31.5 |  | 211 |  |  | 
Clc1cccc2c(-c3cncnc3)n[nH]c12 [Example 216, 7-chloro-3-(pyrimidin-5-yl)-1H-indazole] | 4390 |  | 85.1 |  | 53.8 |  | 729 | 27.5 |  | 
CC(C)N1CC=C(c2n[nH]c3c(Cl)cccc23)C1 [Example 219, 7-chloro-3-(1-isopropyl-2,5-dihydro-1H-pyrrol-3-yl)-1H-indazole] | 313 | 25.5 | 55.5 |  | 71.9 |  | 537 |  |  | 
Clc1cccc2c(C3=CC4CCC(C3)N4)n[nH]c12 (stereo not drawn) [Example 221, 3-(8-azabicyclo[3.2.1]oct-2-en-3-yl)-7-chloro-1H-indazole] | 1400 |  | 59.3 |  | 66.9 |  | 1320 | 108 |  | 
Cc1cccc2c(C34CCNCC3C4)n[nH]c12 (stereo not drawn) [Example 226, 3-(3-azabicyclo[4.1.0]heptan-6-yl)-7-methyl-1H-indazole] | 4630 |  | 91 |  | 52.1 |  | 2000 | 1350 |  | 
Fc1cccc2c(C34CCNCC3C4)n[nH]c12 (stereo not drawn) [Example 229, 3-(3-azabicyclo[4.1.0]heptan-6-yl)-7-fluoro-1H-indazole] | 1900 |  | 83.7 |  | 90.2 |  | 2070 | 236 |  | 
Cc1cccc2c(N3CCNCC3)n[nH]c12 [Example 230, 7-methyl-3-(piperazin-1-yl)-1H-indazole] | 715 |  | 66.1 |  | 45.3 |  | 917 | 248 |  | 
Fc1cc(Cl)c2[nH]nc(N3CCNCC3)c2c1 [Example 232, 7-chloro-5-fluoro-3-(piperazin-1-yl)-1H-indazole] | 1540 |  | 48.4 |  | 29 |  | 1970 | 170 |  | 
CCCN1CCC=C(c2n[nH]c3c(CC)cccc23)C1 [Example 237, 7-ethyl-3-(1-propyl-1,2,5,6-tetrahydropyridin-3-yl)-1H-indazole] | 389 | 33.6 | 37.7 |  | 39.8 |  | 1580 |  |  | 
CCc1cccc2c(C3=CCCN(C4CC4)C3)n[nH]c12 [Example 238, 3-(1-cyclopropyl-1,2,5,6-tetrahydropyridin-3-yl)-7-ethyl-1H-indazole] | 634 |  | 42.2 |  | 50 |  | 1020 | 101 |  | 
CCCc1cccc2c(C3=CCCN(CC)C3)c[nH]c12 [Example 245, 3-(1-ethyl-1,2,5,6-tetrahydropyridin-3-yl)-7-propyl-1H-indole] | 600 |  |  |  |  |  | 1300 | 392 | 87.5 | 44.8
COC1(c2c[nH]c3c(Cl)cccc23)CNC1 [Example 254, 7-chloro-3-(3-methoxyazetidin-3-yl)-1H-indole] | 1080 |  | 88.3 |  | 77.6 |  | 1460 | 294 |  | 
Clc1cccc2c(C3CNC3)c[nH]c12 [Example 255, 3-(azetidin-3-yl)-7-chloro-1H-indole] | 159 |  |  |  |  |  | 302 | 68.2 | 81.1 | 42.3
CN1CC(c2c[nH]c3c(Cl)cccc23)C1 [Example 256, 7-chloro-3-(1-methylazetidin-3-yl)-1H-indole] | 2010 |  | 97.5 |  | 31.7 |  | 1000 | 367 |  | 
C=CCc1cccc2c(C3=CCCN(C)C3)c[nH]c12 [Example 257, 7-allyl-3-(1-methyl-1,2,5,6-tetrahydropyridin-3-yl)-1H-indole] |  | 44.9 | 90.7 |  | 52.1 | 97 | 105 |  |  | 
Cc1cccc2c(C3CN(C)C3)c[nH]c12 [Example 261, 7-methyl-3-(1-methylazetidin-3-yl)-1H-indole] | 1680 |  | 69.3 |  | 26.1 |  | 1650 | 196 |  | 
Clc1cc(Br)cc2c(C3CNC3)c[nH]c12 [Example 267, 3-(azetidin-3-yl)-5-bromo-7-chloro-1H-indole] | 175 |  | 64 |  | 20.8 |  | 1050 | 949 |  | 
Clc1cccc2c(C34CNCCC3C4)c[nH]c12 (stereo not drawn) [Example 269, 3-(3-azabicyclo[4.1.0]heptan-1-yl)-7-chloro-1H-indole] | 743 |  |  |  |  |  | 1380 | 257 | 88.8 | 30
Clc1cccc2c(C34CNCC3C4)c[nH]c12 (stereo not drawn) [Example 270, 3-(3-azabicyclo[3.1.0]hexan-1-yl)-7-chloro-1H-indole] | 134 | 29.8 | 93.8 |  | 21.2 |  | 822 |  |  | 
Cc1cccc2c(C34CNCC3C4)c[nH]c12 (stereo not drawn) [Example 272, 3-(3-azabicyclo[3.1.0]hexan-1-yl)-7-methyl-1H-indole] | 890 |  | 89.5 |  | 38 |  | 1500 | 100 |  | 
Fc1cc(Cl)c2[nH]cc(C34CNCC3C4)c2c1 (stereo not drawn) [Example 279, 3-(3-azabicyclo[3.1.0]hexan-1-yl)-7-chloro-5-fluoro-1H-indole] | 75.2 |  |  |  |  |  | 380 | 110 | 98.6 | 60.9
Fc1ccc2c(C34CNCC3C4)c[nH]c2c1Cl (stereo not drawn) [Example 280, 3-(3-azabicyclo[3.1.0]hexan-1-yl)-7-chloro-6-fluoro-1H-indole] | 63.8 |  |  |  |  |  | 256 | 38.1 | 81.6 | 55.6
Fc1ccc2c(C34CNCC3C4)c[nH]c2c1 (stereo not drawn) [Example 281, 3-(3-azabicyclo[3.1.0]hexan-1-yl)-6-fluoro-1H-indole] |  | 52.1 | 66.3 |  | 27.9 | 61.9 | 369 |  |  | 
Cc1cc(F)cc2c(C34CNCC3C4)c[nH]c12 (stereo not drawn) [Example 282, 3-(3-azabicyclo[3.1.0]hexan-1-yl)-5-fluoro-7-methyl-1H-indole] | 257 |  |  |  |  |  | 1280 | 165 | 96.8 | 44.8
Cc1c(F)ccc2c(C34CNCC3C4)c[nH]c12 (stereo not drawn) [Example 283, 3-(3-azabicyclo[3.1.0]hexan-1-yl)-6-fluoro-7-methyl-1H-indole] | 141 |  |  |  |  |  | 797 | 88.2 | 104 | 41.5
